Activity calls are given as the source filed them. No rule for the calls is given here.
System: CCRIS mutagenicity, Ames/micronucleus/aberration tests
Assay: CCRIS mutagenicity studies
[1] = Test System: AMES SALMONELLA TYPHIMURIUM, Strain/Indicator: TA98, Metabolic Activation: NONE, Method: STANDARD PLATE
[2] = Test System: AMES SALMONELLA TYPHIMURIUM, Strain/Indicator: TA98, Metabolic Activation: RAT, LIVER, S-9, AROCLOR 1254, Method: STANDARD PLATE
[3] = Test System: AMES SALMONELLA TYPHIMURIUM, Strain/Indicator: TA100, Metabolic Activation: NONE, Method: STANDARD PLATE
[4] = Test System: AMES SALMONELLA TYPHIMURIUM, Strain/Indicator: TA100, Metabolic Activation: RAT, LIVER, S-9, AROCLOR 1254, Method: STANDARD PLATE
[5] = End Point: IN VITRO CHROMOSOMAL ABERRATIONS, Test System: CHL CELLS, Metabolic Activation: RAT, LIVER, S-9, SODIUM PHENOBARBITAL AND 5,6-BENZOFLAVONE
[6] = Test System: AMES SALMONELLA TYPHIMURIUM, Strain/Indicator: TA98, Metabolic Activation: NONE, Method: PREINCUBATION
[7] = Test System: AMES SALMONELLA TYPHIMURIUM, Strain/Indicator: TA98, Metabolic Activation: RAT LIVER S-9, PHENOBARBITAL AND BETA-NAPHTHOFLAVONE, Method: PREINCUBATION
[8] = Test System: AMES SALMONELLA TYPHIMURIUM, Strain/Indicator: TA100, Metabolic Activation: NONE, Method: PREINCUBATION
[9] = Test System: AMES SALMONELLA TYPHIMURIUM, Strain/Indicator: TA100, Metabolic Activation: RAT LIVER S-9, PHENOBARBITAL AND BETA-NAPHTHOFLAVONE, Method: PREINCUBATION
[10] = Test System: AMES SALMONELLA TYPHIMURIUM, Strain/Indicator: TA1535, Metabolic Activation: NONE, Method: PREINCUBATION
[11] = Test System: AMES SALMONELLA TYPHIMURIUM, Strain/Indicator: TA1535, Metabolic Activation: RAT LIVER S-9, PHENOBARBITAL AND BETA-NAPHTHOFLAVONE, Method: PREINCUBATION
[12] = Test System: AMES SALMONELLA TYPHIMURIUM, Strain/Indicator: TA1537, Metabolic Activation: NONE, Method: PREINCUBATION
[13] = Test System: AMES SALMONELLA TYPHIMURIUM, Strain/Indicator: TA1537, Metabolic Activation: RAT LIVER S-9, PHENOBARBITAL AND BETA-NAPHTHOFLAVONE, Method: PREINCUBATION
[14] = Test System: E.COLI, Strain/Indicator: WP2UVRA, Metabolic Activation: NONE, Method: PREINCUBATION
[15] = Test System: E.COLI, Strain/Indicator: WP2UVRA, Metabolic Activation: RAT LIVER S-9, PHENOBARBITAL AND BETA-NAPHTHOFLAVONE, Method: PREINCUBATION
[16] = Test System: MOUSE LYMPHOMA, Strain/Indicator: L5178Y (TK+/TK-), Metabolic Activation: NONE, Method: SUSPENSION/PLATE

C[C@H]1CCC[C@@]2(C)CCCC[C@]12O
mutagenic call [1]: inactive; negative | mutagenic call [2]: inactive; negative | mutagenic call [3]: inactive; negative | mutagenic call [4]: inactive; negative

CCOS(=O)(=O)OCC
mutagenic call [5]: active; positive (structural changes) | mutagenic call (End Point: In vitro micronucleus, Test System: Chinese Hamster Ovary (CHO-WBL) cells, Metabolic Activation: None): active; positive (p<0.01) | mutagenic call [6]: active; positive | mutagenic call [7]: active; positive | mutagenic call [8]: active; positive | mutagenic call [3]: active; positive | mutagenic call [9]: active; positive | mutagenic call [10]: active; positive | mutagenic call (Test System: AMES SALMONELLA TYPHIMURIUM, Strain/Indicator: TA1535, Metabolic Activation: NONE, Method: STANDARD PLATE): active; positive | mutagenic call [11]: active; positive | mutagenic call [12]: active; positive | mutagenic call [13]: active; positive | mutagenic call (Test System: CHINESE HAMSTER OVARY, Strain/Indicator: CHO-K1-BH4 (HGPRT), Metabolic Activation: NONE, Method: STANDARD PLATE): active; positive | mutagenic call (Test System: CHINESE HAMSTER V-79, Strain/Indicator: V-79/6-THIOGUANINE, Metabolic Activation: NONE, Method: FLASK ASSAY): active; positive | mutagenic call [14]: active; positive | mutagenic call [15]: active; positive

CCCCCCCCCC(=O)N=c1sn(C(=O)CCCCCCCCC)c2ccc([N+](=O)[O-])cc12
mutagenic call (Test System: AMES SALMONELLA TYPHIMURIUM, Strain/Indicator: TA100, Metabolic Activation: S-9, Method: STANDARD PLATE): active; positive

CCN(CC)C(=S)S
mutagenic call (End Point: IN VITRO CHROMOSOMAL ABERRATIONS, Test System: CHO CELLS, Metabolic Activation: RAT, LIVER, S-9, AROCLOR 1254): inactive; negative | mutagenic call (End Point: IN VITRO CHROMOSOMAL ABERRATIONS, Test System: TK6 HUMAN LYMPHOBLASTS, Metabolic Activation: NONE): active; positive (weak response) | mutagenic call [16]: active; positive

O=NC1=Cc2nc3ccccn3c2NC1
mutagenic call [1]: active; positive | mutagenic call (Test System: AMES SALMONELLA TYPHIMURIUM, Strain/Indicator: TA98, Metabolic Activation: RAT, LIVER, CYTOSOL, AROCLOR 1254, Method: STANDARD PLATE): active; positive | mutagenic call (Test System: AMES SALMONELLA TYPHIMURIUM, Strain/Indicator: TA98, Metabolic Activation: RAT, LIVER, MICROSOMES, AROCLOR 1254, Method: STANDARD PLATE): inactive; negative | mutagenic call [2]: active; positive

CC(C)(Br)C(=O)O
mutagenic call (End Point: IN VITRO CHROMOSOMAL ABERRATIONS, Test System: CHL CELLS, Metabolic Activation: NONE): active; positive (structural changes) | mutagenic call [5]: active; positive (structural changes)

Brc1ccc(C2CO2)cc1 (configuration not stated)
mutagenic call (Test System: E. COLI, Strain/Indicator: WP2 UVRA, Metabolic Activation: NONE, Method: STANDARD PLATE): active; positive

OC/C=C/Cl
mutagenic call [3]: inactive; negative | mutagenic call (Test System: AMES SALMONELLA TYPHIMURIUM, Strain/Indicator: TA100, Metabolic Activation: RAT, LIVER, S-9, PCB, Method: STANDARD PLATE): active; positive

COCCc1ccc(OCC(O)CN(N=O)C(C)C)cc1 (configuration not stated)
mutagenic call (Test System: UDS HUMAN HEPATOCYTES, Strain/Indicator: THY INCORP, Metabolic Activation: NONE, Method: AUTORADIOGRAPHY): active; positive | mutagenic call (Test System: UDS RAT HEPATOCYTES, Strain/Indicator: THY INCORP, Metabolic Activation: NONE, Method: AUTORADIOGRAPHY): active; positive

CC1(C)CCC2(C(=O)OC3OC(CO)C(O)C(O)C3O)CCC3(CO)C(=CCC4C5(C)CC(O)C(O)C(C)(C(=O)OC6OC(CO)C(O)C(O)C6O)C5CCC43C)C2C1 (configuration not stated)
mutagenic call (End Point: In vivo micronucleus, Test System: Bone marrow polychromatic erythrocytes, Species: Mouse, Strain/Sex: C57BL/6J/Male, Route: Intraperitoneal): inactive; negative; protective when coadministered with gamma radiation | mutagenic call [16]: inactive; negative. reevaluation of results: negative | mutagenic call (Test System: MOUSE LYMPHOMA, Strain/Indicator: L5178Y (TK+/TK-), Metabolic Activation: RAT, LIVER, S-9, AROCLOR 1254, Method: SUSPENSION/PLATE): inactive; negative. reevaluation of results: negative

CCOCCOC(C)=O
mutagenic call [6]: inactive; negative | mutagenic call [7]: inactive; negative | mutagenic call [8]: inactive; negative | mutagenic call [9]: inactive; negative | mutagenic call (Test System: AMES SALMONELLA TYPHIMURIUM, Strain/Indicator: TA102, Metabolic Activation: NONE, Method: PREINCUBATION): inactive; negative | mutagenic call (Test System: AMES SALMONELLA TYPHIMURIUM, Strain/Indicator: TA102, Metabolic Activation: RAT LIVER S-9, PHENOBARBITAL AND BETA-NAPHTHOFLAVONE, Method: PREINCUBATION): inactive; negative | mutagenic call (Test System: AMES SALMONELLA TYPHIMURIUM, Strain/Indicator: TA104, Metabolic Activation: NONE, Method: PREINCUBATION): inactive; negative | mutagenic call (Test System: AMES SALMONELLA TYPHIMURIUM, Strain/Indicator: TA104, Metabolic Activation: RAT LIVER S-9, PHENOBARBITAL AND BETA-NAPHTHOFLAVONE, Method: PREINCUBATION): inactive; negative | mutagenic call [10]: inactive; negative | mutagenic call [11]: inactive; negative | mutagenic call [12]: inactive; negative | mutagenic call [13]: inactive; negative | mutagenic call (Test System: E.COLI, Strain/Indicator: WP2UVRA/PKM101, Metabolic Activation: NONE, Method: PREINCUBATION): inactive; negative | mutagenic call (Test System: E.COLI, Strain/Indicator: WP2UVRA/PKM101, Metabolic Activation: RAT LIVER S-9, PHENOBARBITAL AND BETA-NAPHTHOFLAVONE, Method: PREINCUBATION): inactive; negative | mutagenic call [14]: inactive; negative | mutagenic call [15]: inactive; negative

COc1cc2c(cc1O)CCN[C@]21CS[C@@H]2c3c(OC(C)=O)c(C)c4c(c3[C@H](COC1=O)N1[C@@H]2[C@H]2c3c(cc(C)c(OC)c3O)C[C@@H]([C@@H]1O)N2C)OCO4
mutagenic call (Test System: AMES SALMONELLA TYPHIMURIUM, Strain/Indicator: TA98, Metabolic Activation: HAMSTER, LIVER, S-9, AROCLOR 1254, Method: STANDARD PLATE): active; positive | mutagenic call [1]: inactive; negative | mutagenic call [2]: active; positive | mutagenic call (Test System: AMES SALMONELLA TYPHIMURIUM, Strain/Indicator: TA100, Metabolic Activation: HAMSTER, LIVER, S-9, AROCLOR 1254, Method: STANDARD PLATE): inactive; negative | mutagenic call [3]: inactive; negative | mutagenic call [4]: inactive; negative | mutagenic call (Test System: Mouse lymphoma, Strain/Indicator: L5178Y (tk+/tk-), Metabolic Activation: None, Method: Suspension/plate): active; positive | mutagenic call (Test System: Mouse lymphoma, Strain/Indicator: L5178Y (tk+/tk-), Metabolic Activation: Rat, Liver, S-9, Aroclor 1254, Method: Suspension/plate): active; positive

Reference: PubChem BioAssay AID1259407 (Chemical Carcinogenesis Research Information System (CCRIS), 2018)
